The subject of this assay is L1210 leukemia ip in BDF1 mice, survival T/C. Nature of the assay: NCI In Vivo Anticancer Drug Screen. Data for tumor model L1210 Leukemia (intraperitoneal) in B6D2F1 (BDF1) mice. The following applies: endpoint: mean survival time, higher = longer survival. The method in brief:
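Transplanted-tumor mice were given test agent; controls received vehicle only. Survival readings from the two groups were divided (treated over control).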

Where [1] appears, read: dose: 100.0 mg/kg/injection, schedule: Q04DX003 (ip), vehicle: saline.
[2] abbreviates: dose: 200.0 mg/kg/injection, schedule: Q04DX003 (ip), vehicle: saline.
Where [3] appears, read: dose: 400.0 mg/kg/injection, schedule: Q04DX003 (ip), vehicle: saline.
Where [4] appears, read: dose: 100.0 mg/kg/injection, schedule: Q01DX009 (ip), vehicle: Klucel (hydroxypropylcellulose) (HPC).
Where [5] appears, read: dose: 100.0 mg/kg/injection, schedule: Q04DX003 (ip), vehicle: Klucel (hydroxypropylcellulose) (HPC).
The mark [6] stands for this setting: dose: 200.0 mg/kg/injection, schedule: Q01DX009 (ip), vehicle: Klucel (hydroxypropylcellulose) (HPC).
Where [7] appears, read: dose: 200.0 mg/kg/injection, schedule: Q04DX003 (ip), vehicle: Klucel (hydroxypropylcellulose) (HPC).
Setting [8] is: dose: 400.0 mg/kg/injection, schedule: Q01DX009 (ip), vehicle: Klucel (hydroxypropylcellulose) (HPC).
Setting [9] is: dose: 400.0 mg/kg/injection, schedule: Q04DX003 (ip), vehicle: Klucel (hydroxypropylcellulose) (HPC).
[10] abbreviates: dose: 100.0 mg/kg/injection, schedule: Q04DX002 (ip), vehicle: Klucel (hydroxypropylcellulose) (HPC).
The mark [11] stands for this setting: dose: 200.0 mg/kg/injection, schedule: Q04DX002 (ip), vehicle: Klucel (hydroxypropylcellulose) (HPC).
Setting [12] is: dose: 400.0 mg/kg/injection, schedule: Q04DX002 (ip), vehicle: Klucel (hydroxypropylcellulose) (HPC).
The mark [13] stands for this setting: dose: 5.0 mg/kg/injection, schedule: Q01DX001 (ip), vehicle: saline.
Where [14] appears, read: dose: 10.0 mg/kg/injection, schedule: Q01DX001 (ip), vehicle: saline.
The mark [15] stands for this setting: dose: 20.0 mg/kg/injection, schedule: Q01DX001 (ip), vehicle: saline.
Setting [16] is: dose: 100.0 mg/kg/injection, schedule: Q01DX001 (ip), vehicle: saline.
[17] abbreviates: dose: 200.0 mg/kg/injection, schedule: Q01DX001 (ip), vehicle: saline.
The mark [18] stands for this setting: dose: 400.0 mg/kg/injection, schedule: Q01DX001 (ip), vehicle: saline.

Several values for one entry are separate records, joined by “and”; a condition that tells them apart may be missing. Identical values can stand only once. Toxic doses and inconclusive results are not listed.

`COc1cc[n+]([O-])cc1`: the T/C is 103 % of control (dose: 100.0 mg/kg/injection, schedule: Q01DX009 (ip), vehicle: saline); 102 % of control and 106 % of control (dose: 100.0 mg/kg/injection, schedule: Q01DX Z (ip), vehicle: saline); 121 % of control under setting [1]; 103 % of control and 107 % of control (dose: 150.0 mg/kg/injection, schedule: Q01DX Z (ip), vehicle: saline); 100 % of control (dose: 200.0 mg/kg/injection, schedule: Q01DX009 (ip), vehicle: saline); 114 % of control under setting [2]. Besides, the T/C is, setting by setting: (dose: 225.0 mg/kg/injection, schedule: Q01DX Z (ip), vehicle: saline) 95 % of control and 97 % of control; (dose: 300.0 mg/kg/injection, schedule: Q01DX Z (ip), vehicle: saline) 92 % of control and 106 % of control; (dose: 400.0 mg/kg/injection, schedule: Q01DX009 (ip), vehicle: saline) 99 % of control; under setting [3], 95 % of control.

As to `CCOC(=O)c1cnc(SC)nc1Nc1ccccc1C`, the T/C under setting [4] was 96 % of control; the T/C under setting [5] was 97 % of control; the T/C under setting [6] is 93 % of control; the T/C under setting [7] was 98 % of control; the T/C under setting [8] is 91 % of control; the T/C under setting [9] is 98 % of control.

Take `CCSCC(C)O` (stereo not given): the T/C is, setting by setting: (dose: 100.0 mg/kg/injection, schedule: Q04DX002 (ip), vehicle: saline with Tween-80) 100 % of control; (dose: 200.0 mg/kg/injection, schedule: Q04DX002 (ip), vehicle: saline with Tween-80) 100 % of control; (dose: 400.0 mg/kg/injection, schedule: Q04DX002 (ip), vehicle: saline with Tween-80) 94 % of control.

`O=S(=O)(O)c1cc(O)c2c(O)c(N=Nc3ccccc3[As](=O)(O)O)c(S(=O)(=O)O)cc2c1`: the T/C (dose: 50.0 mg/kg/injection, schedule: Q04DX003 (ip), vehicle: saline) was 102 % of control; the T/C under setting [1] was 98 % of control and 99 % of control; the T/C under setting [2] is 103 % of control and 120 % of control; the T/C under setting [3] was 101 % of control and 103 % of control.

Consider `CC[n+]1cccc2cc(NC(=O)c3ccc(NC(=O)c4ccc(C(=O)Nc5ccc6c(ccc[n+]6CC)c5)cc4)cc3)ccc21`, for which the T/C reads like this: (dose: 0.5 mg/kg/injection, schedule: Q01DX Z (ip), vehicle: carboxymethylcellulose (CMC)) 94 % of control; (dose: 1.0 mg/kg/injection, schedule: Q01DX Z (ip), vehicle: carboxymethylcellulose (CMC)) 96 % of control; (dose: 2.5 mg/kg/injection, schedule: Q01DX Z (ip), vehicle: carboxymethylcellulose (CMC)) 120 % of control; (dose: 5.0 mg/kg/injection, schedule: Q01DX Z (ip), vehicle: carboxymethylcellulose (CMC)) 156 % of control; (dose: 8.9 mg/kg/injection, schedule: Q01DX Z (ip), vehicle: carboxymethylcellulose (CMC)) 154 % of control; (dose: 13.3 mg/kg/injection, schedule: Q01DX Z (ip), vehicle: carboxymethylcellulose (CMC)) 164 % of control. The T/C is, setting by setting: (dose: 20.0 mg/kg/injection, schedule: Q01DX Z (ip), vehicle: carboxymethylcellulose (CMC)) 164 % of control; (dose: 30.0 mg/kg/injection, schedule: Q01DX Z (ip), vehicle: carboxymethylcellulose (CMC)) 174 % of control.

For the compound `O=C1CC(c2ccccc2)=CN1c1ccc(Cl)cc1`, the T/C is 89 % of control under setting [10], 104 % of control under setting [11] and 112 % of control under setting [12].

As to `CS(=O)(=O)OCCN(CCOS(C)(=O)=O)c1cccc(C(F)(F)F)c1`, the T/C is, setting by setting: under setting [13], 96 % of control; under setting [14], 100 % of control; (dose: 11.0 mg/kg/injection, schedule: Q01DX015 (ip), vehicle: saline) 101 % of control; (dose: 17.0 mg/kg/injection, schedule: Q01DX015 (ip), vehicle: saline) 110 % of control; under setting [15], 102 % of control; (dose: 25.0 mg/kg/injection, schedule: Q01DX015 (ip), vehicle: saline) 116 % of control. For the same compound, the T/C runs as follows: (dose: 50.0 mg/kg/injection, schedule: Q01DX001 (ip), vehicle: saline) 124 % of control; under setting [16], 124 % of control; under setting [17], 120 % of control; under setting [18], 86 % of control.

On to `CC(C)C(=O)[O][Pb]([c]1ccccc1)([c]1ccccc1)[c]1ccccc1`, for which the T/C (dose: 12.5 mg/kg/injection, schedule: Q04DX002 (ip), vehicle: Klucel (hydroxypropylcellulose) (HPC)) is 101 % of control; the T/C (dose: 25.0 mg/kg/injection, schedule: Q04DX002 (ip), vehicle: Klucel (hydroxypropylcellulose) (HPC)) is 97 % of control; the T/C (dose: 50.0 mg/kg/injection, schedule: Q04DX002 (ip), vehicle: Klucel (hydroxypropylcellulose) (HPC)) was 97 % of control.

Turning to `CCOc1ccccc1/C=N/N=C(N)N`, the T/C is 95 % of control (dose: 63.0 mg/kg/injection, schedule: Q01DX Z (ip), vehicle: carboxymethylcellulose (CMC)) and 95 % of control (dose: 125.0 mg/kg/injection, schedule: Q01DX Z (ip), vehicle: carboxymethylcellulose (CMC)).

On to `CC(=O)N(C=C(C#N)C#N)c1ccccc1`, for which the T/C was 104 % of control (dose: 100.0 mg/kg/injection, schedule: Q01DX001 (ip), vehicle: Klucel (hydroxypropylcellulose) (HPC)); 108 % of control under setting [5]; 106 % of control (dose: 200.0 mg/kg/injection, schedule: Q01DX001 (ip), vehicle: Klucel (hydroxypropylcellulose) (HPC)); 96 % of control under setting [7]; 116 % of control under setting [9].

Consider `CNC(=O)Nc1cc(OC)ccc1OC`, for which the T/C runs as follows: under setting [4], 106 % of control; under setting [6], 98 % of control; under setting [8], 107 % of control.

`Cc1c(C)c(O)c2c(c1C)C(C)C(=O)OC2=O` (stereo not given): the T/C is, setting by setting: under setting [13], 104 % of control; under setting [14], 100 % of control; under setting [15], 92 % of control; (dose: 40.0 mg/kg/injection, schedule: Q01DX001 (ip), vehicle: saline) 97 % of control.

Consider `O=S(=O)(OCC#CCOS(=O)(=O)c1ccc(Cl)c(Cl)c1)c1ccc(Cl)c(Cl)c1`, for which the T/C is 90 % of control (dose: 12.5 mg/kg/injection, schedule: Q01DX009 (ip), vehicle: saline with Tween-80) and 90 % of control (dose: 25.0 mg/kg/injection, schedule: Q01DX009 (ip), vehicle: saline with Tween-80).

`COc1cc2ccc3c(c2cc1OC)C=[N+](C)CC3`: the T/C (dose: 100.0 mg/kg/injection, schedule: Q01DX009 (ip), vehicle: saline sonified) is 120 % of control; the T/C (dose: 100.0 mg/kg/injection, schedule: Q04DX003 (ip), vehicle: saline sonified) is 98 % of control; the T/C (dose: 200.0 mg/kg/injection, schedule: Q01DX009 (ip), vehicle: saline sonified) is 114 % of control; the T/C (dose: 200.0 mg/kg/injection, schedule: Q04DX003 (ip), vehicle: saline sonified) was 93 % of control; the T/C (dose: 400.0 mg/kg/injection, schedule: Q04DX003 (ip), vehicle: saline sonified) is 102 % of control.

In the case of `O=C(O)CSc1n[nH]c(=O)[nH]c1=O`, the T/C was 117 % of control under setting [16], 97 % of control under setting [17] and 113 % of control under setting [18].

Turning to `CCOC(=O)C1CN(CCc2ccccc2)CCC1=O` (stereo not given), the T/C by setting is: (dose: 75.0 mg/kg/injection, schedule: Q01DX001 (ip), vehicle: saline) 101 % of control; (dose: 75.0 mg/kg/injection, schedule: Q04DX003 (ip), vehicle: saline) 100 % of control; (dose: 150.0 mg/kg/injection, schedule: Q01DX001 (ip), vehicle: saline) 95 % of control; (dose: 150.0 mg/kg/injection, schedule: Q04DX003 (ip), vehicle: saline) 100 % of control; (dose: 300.0 mg/kg/injection, schedule: Q01DX001 (ip), vehicle: saline) 91 % of control; (dose: 300.0 mg/kg/injection, schedule: Q04DX003 (ip), vehicle: saline) 108 % of control.

Consider `Cc1nc(N)[nH]c(=O)c1CCCNc1nc(Cl)nc(Cl)n1`, for which the T/C is 91 % of control under setting [10], 91 % of control under setting [11] and 88 % of control under setting [12].

The values are drawn from PubChem BioAssay AID248 (DTP/NCI, 2004).
